Test results: the Deep4Chem optical property database

Experiment: photoluminescence quantum yield (fraction); solvent given as SMILES

`[O-][n+]1c(-c2ccccc2)cc(N2CCOCC2)nc1/C=C/c1ccccc1` gave a photoluminescence quantum yield (in ClCCl) of 0.2.
Molecule `C(S/C=C/c1ccc(/C=C/SC=C2CCCCCC2)cc1)=C1CCCCCC1` has a photoluminescence quantum yield (in ClCCl) of 0.109.
With `CCCCC1=Cc2c3ccc4cccc5ccc(c6cc(-c7ccccc7)n(c26)P1(=O)c1ccccc1)c3c45` (centres undefined) the photoluminescence quantum yield (in C1CCCCC1) was 0.64, the photoluminescence quantum yield (in C1CCOC1) was 0.51 and the photoluminescence quantum yield (in C1COCCO1) was 0.55. The photoluminescence quantum yield (in CC#N) was 0.54, the photoluminescence quantum yield (in CC(C)=O) was 0.56 and the photoluminescence quantum yield (in CO) was 0.51. It also gave a photoluminescence quantum yield (in Cc1ccccc1) of 0.6, a photoluminescence quantum yield (in ClC(Cl)Cl) of 0.56 and a photoluminescence quantum yield (in ClCCl) of 0.57.
Molecule `CC(C)c1cc(C(C)C)c(B2c3ccccc3Oc3cc(N4c5ccccc5C5(c6ccccc6-c6ccccc65)c5ccccc54)ccc32)c(C(C)C)c1` has a photoluminescence quantum yield (in Cc1ccccc1) of 0.76.
`Nc1ccc(/C=C/c2ccccc2)cc1` gave a photoluminescence quantum yield (in CC#N) of 0.03 and a photoluminescence quantum yield (in CCCCCC) of 0.03.
`N#Cc1ccc(-c2cc3c(ccc4sccc43)s2)cc1` gave a photoluminescence quantum yield (in ClCCl) of 0.22.
In the case of `c1ccc(-c2nc(-c3ccccc3)nc(-c3ccccc3-n3c4ccccc4c4c5oc6ccccc6c5ccc43)n2)cc1`, the photoluminescence quantum yield (in O=P(c1ccccc1)(c1ccccc1)c1ccccc1Oc1ccccc1P(=O)(c1ccccc1)c1ccccc1) is reported as 0.979.
`COc1ccc(C2=C(c3ccc(OC)cc3)C(C)(C)c3c2ccc2ccccc32)cc1` gave a photoluminescence quantum yield (in C1CCCCC1) of 0.11.
`CC[n+]1c(C=C2C(=O)C(C=C3N(C)c4ccccc4C3(C)C)=C2[O-])[se]c2ccccc21` showed a photoluminescence quantum yield (in CC(C)O) of 0.11.
With `COc1ccc2c(c1)c1cc(OC)ccc1n2-c1nc2ccccc2nc1-n1c2ccc(OC)cc2c2cc(OC)ccc21` the photoluminescence quantum yield (in Cc1ccccc1) was 0.13.
Work on `Cc1ccc2[nH]c(-c3ccc(-c4ccc(-c5ccc(-c6nc7cc(C)ccc7[nH]6)cc5)cc4)cc3)nc2c1` yielded a photoluminescence quantum yield (in CN(C)C=O) of 0.94.
In the case of `N#Cc1cc(-n2c3ccccc3c3cc(Br)ccc32)c(-n2c3ccccc3c3cc(Br)ccc32)cc1C#N`, the photoluminescence quantum yield (in C1CCOC1) is reported as 0.057 and the photoluminescence quantum yield (in c1ccc2c(c1)c1ccccc1n2-c1ccc(-c2ccc(-n3c4ccccc4c4ccccc43)cc2)cc1) is reported as 0.543.
In the case of `C1=Cc2ccccc2C(=Cc2ccc(C=C3c4ccccc4C=Cc4ccccc43)cc2)c2ccccc21`, the photoluminescence quantum yield (in C1CCOC1) is reported as 5e-05.
In the case of `Fc1c(F)c(F)c([B-]2(c3c(F)c(F)c(F)c(F)c3F)Oc3c(ccc4c5c(ccc34)C=[N+](c3ccccc3)[B-](c3c(F)c(F)c(F)c(F)c3F)(c3c(F)c(F)c(F)c(F)c3F)O5)C=[N+]2c2ccccc2)c(F)c1F`, the photoluminescence quantum yield (in Cc1ccccc1) is reported as 0.81 and the photoluminescence quantum yield (in ClCCl) is reported as 0.8.
Molecule `COc1ccc(C2=CC(c3ccccc3)=C(c3ccccc3)C2)c2ccccc12` has a photoluminescence quantum yield (in ClCCl) of 0.0685.
Work on `CN(C)c1ccc2nc(-c3ccc(/C=N/Nc4ccccc4)cc3)sc2c1` yielded a photoluminescence quantum yield (in C1CCCCC1) of 0.023, a photoluminescence quantum yield (in CC#N) of 0.067 and a photoluminescence quantum yield (in CO) of 0.026. The photoluminescence quantum yield (in ClC(Cl)Cl) was 0.057.
In the case of `c1ccc2c(-c3c4ccccc4c(-c4ccc(-c5ccc(-n6c7ccccc7c7ccccc76)cc5)cc4)c4ccccc34)cccc2c1`, the photoluminescence quantum yield (in ClCCl) is reported as 0.7.
`COc1ccc(C#Cc2c3cc4ccccc4cc3c(C#Cc3ccc(OC)cc3)c3cc4sc(C)cc4cc23)cc1` gave a photoluminescence quantum yield (in ClCCl) of 0.64.
Work on `O=P1(c2ccccc2)C2=C(c3ccccc31)[Si](c1ccccc1)(c1ccccc1)c1cc(N(c3ccccc3)c3ccccc3)ccc12` (centres undefined) yielded a photoluminescence quantum yield (in CC#N) of 0.52, a photoluminescence quantum yield (in CO) of 0.17 and a photoluminescence quantum yield (in Cc1ccccc1) of 0.86.
Work on `N#Cc1nc(N(Cc2ccccc2Cl)Cc2ccccc2Cl)c(C#N)nc1N(Cc1ccccc1Cl)Cc1ccccc1Cl` yielded a photoluminescence quantum yield (in ClC(Cl)Cl) of 0.78.
With `N#Cc1cc2ccc3cc(C#N)c4ccccc4c3c2c2ccccc12` the photoluminescence quantum yield (in ClC(Cl)Cl) was 0.14.
`CC1=[N+]2C(=C(c3ccc(N(c4ccccc4)c4ccccc4)cc3)c3ccc(C)n3[B-]2(F)F)C=C1c1cc2n(c1)[B-](F)(F)[N+]1=CC=CC1=C2c1c(C)cc(C)cc1C` showed a photoluminescence quantum yield (in C1CCCCC1) of 0.37 and a photoluminescence quantum yield (in CCOC(C)=O) of 0.1.
For `Cc1cc2sccc2c2[nH]c3ccccc3c12`, the photoluminescence quantum yield (in ClCCl) was 0.053.
`c1ccc(-c2cc(-c3ccccc3)cc(-c3ccccc3)c2)cc1` gave a photoluminescence quantum yield (in C1COCCO1) of 0.1.
`CCOC(CN1C(=O)C2=C(c3ccc(OC)c(OC)c3)N(CC(OCC)OCC)C(=O)C2=C1c1ccc(OC)c(OC)c1)OCC` showed a photoluminescence quantum yield (in ClC(Cl)Cl) of 0.9.
Molecule `CCCCCCCCC1(CCCCCCCC)c2cc(-c3ccc([N+](=O)[O-])cc3)ccc2-c2ccc(-c3ccc([N+](=O)[O-])cc3)cc21` has a photoluminescence quantum yield (in C1CCCCC1) of 0, a photoluminescence quantum yield (in CCO) of 0 and a photoluminescence quantum yield (in CN(C)C=O) of 0.31. The photoluminescence quantum yield (in CS(C)=O) was 0.28, the photoluminescence quantum yield (in Cc1ccccc1) was 0 and the photoluminescence quantum yield (in ClC(Cl)Cl) was 0.11.
`CCC1=C(C)C(=O)n2c1cc1c(C)c(CC(=O)OC)c(C)n1c2=O` gave a photoluminescence quantum yield (in CO) of 0.94, a photoluminescence quantum yield (in CS(C)=O) of 1 and a photoluminescence quantum yield (in ClC(Cl)Cl) of 1. For the same molecule, the photoluminescence quantum yield (in c1ccccc1) was 1.
With `COc1ccc(C2=C(C)C3=C(c4c(-c5ccccn5)nc5ccccn45)c4c(C)cc(C)n4[B-](F)(F)[N+]3=C2C)cc1` the photoluminescence quantum yield (in ClCCl) was 0.212.
Molecule `C(#Cc1ccccc1)c1ccccc1` has a photoluminescence quantum yield (in CO) of 0.0015, a photoluminescence quantum yield (in ClC(Cl)Cl) of 0.003 and a photoluminescence quantum yield (in ClCCl) of 0.003.
Work on `c1ccc2c(c1)oc1nc3oc4ccc(-n5c6ccccc6c6ccccc65)cc4c3cc12` yielded a photoluminescence quantum yield (in ClC(Cl)Cl) of 0.074.
`COc1ccc(C2=[N+]3C(=Nc4c(-c5ccccc5)c(Br)c(-c5ccc(OC)cc5)n4[B-]3(F)F)C(c3ccccc3)=C2Br)cc1` showed a photoluminescence quantum yield (in ClC(Cl)Cl) of 0.1 and a photoluminescence quantum yield (in ClCCl) of 0.1.
In the case of `CCN(CC)c1ccc2c(-c3ccccc3C(=O)O)c3c([o+]c2c1)/C(=C/c1nc(-c2ccccc2)n2ccccc12)CCC3`, the photoluminescence quantum yield (in ClCCl) is reported as 0.4.
`CCCCCCc1ccc2c3c(ccc2c1)O[B-](F)(F)[N+](c1ccc([N+]2=Cc4c(ccc5cc(CCCCCC)ccc45)O[B-]2(F)F)cc1)=C3` showed a photoluminescence quantum yield (in C1CCOC1) of 0.35, a photoluminescence quantum yield (in CC#N) of 0.3 and a photoluminescence quantum yield (in Cc1ccccc1) of 0.43. It also gave a photoluminescence quantum yield (in ClCCl) of 0.44.
